Data: patent publication US12371464B2, “Polypeptides and uses thereof” (MEDIMMUNE LIMITED, priority 2020, dated 2025)
Numbered stars: 1 amine (or outer) side, 2 acyl side, 3 side chain; on linkers, the order of the positions; unused ones are H or OH. Bridge positions count the residues as written; N and C are the ends. Square brackets hold non-standard residues; d marks the D form. Side chains are listed from the residue outwards. Peptide text beside a SMILES is read from it. * marks the point of attachment. C18 diacid = O=C(O)CCCCCCCCCCCCCCCCC(=O)*; γGlu = O=C(O)[C@H](CCC(=O)[*:2])N[*:1]; αMeF = C[C@](N)(Cc1ccccc1)C(=O)O; Aib = CC(C)(N)C(=O)O

test: Thioflavin T fibrillation assay; type: physicochemical; conditions: 1 mg/mL in 25 mM sodium acetate buffer pH 4.0, 37° C., 6 days, orbital shaking; >144 h = no increase
Procedure, shortened: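 Peptides at 1 mg/mL in 25 mM sodium acetate pH 4.0 were mixed with ThT (0.25 mM stock) and held 6 days at 37 °C with intermittent orbital shaking at 500–750 rpm. Fluorescence (ex 444/em 480 nm) was read every 30 min, with buffer baseline correction and 5 replicates. Value: mean time to a detectable fluorescence increase.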

Time taken to detect increase in fluorescence intensity | SMILES
>144 h | CC[C@H](C)[C@H](NC(=O)[C@@H]1CCCN1C(=O)CNC(=O)[C@](C)(Cc1ccccc1)NC(=O)[C@H](CC(N)=O)NC(=O)[C@H](CC(N)=O)NC(=O)[C@H](CO)NC(=O)[C@H](CO)NC(=O)[C@H](Cc1c[nH]cn1)NC(=O)[C@H](CCCNC(=N)N)NC(=O)[C@H](CC(C)C)NC(=O)[C@H](Cc1ccccc1)NC(=O)[C@H](CC(N)=O)NC(=O)[C@H](C)NC(=O)[C@H](CC(C)C)NC(=O)[C@H](CCCNC(=N)N)NC(=O)[C@H](CCC(N)=O)NC(=O)[C@@H](NC(=O)[C@H](C)NC(=O)[C@@H]1CSSC[C@H](NC(=O)[C@@H](N)CCCCNC(=O)CC[C@H](NC(=O)CC[C@H](NC(=O)CCCCCCCCCCCCCCCCC(=O)O)C(=O)O)C(=O)O)C(=O)N[C@@H](CC(N)=O)C(=O)N[C@@H]([C@@H](C)O)C(=O)N[C@@H](C)C(=O)N[C@@H]([C@@H](C)O)C(=O)N1)[C@@H](C)O)C(=O)N[C@@H](CC(C)C)C(=O)N1CCC[C@H]1C(=O)N1CCC[C@H]1C(=O)N[C@H](C(=O)N[C@@H](CCC(=O)O)C(=O)N[C@H](C(=O)NCC(=O)N[C@@H](CO)C(=O)N[C@@H](CC(N)=O)C(=O)N[C@H](C(=O)N[C@@H](Cc1ccc(O)cc1)C(N)=O)[C@@H](C)O)C(C)C)[C@@H](C)O [Peptide 18, K(γE-γE-C18diacid)[CNTATC]ATQRLANFLRHSSNN(αMePhe)GPILPPTEVGSNTY-amide] (H-K([γGlu-γGlu-C18 diacid])CNTATCATQRLANFLRHSSNN[αMeF]GPILPPTEVGSNTY-NH2; disulfide 2-7; N-terminus assumed)
>144 h | CC[C@H](C)[C@H](NC(=O)[C@@H]1CCCN1C(=O)CNC(=O)[C@H](Cc1ccccc1)NC(=O)[C@H](CC(N)=O)NC(=O)C(C)(C)NC(=O)[C@H](CO)NC(=O)[C@H](CO)NC(=O)[C@H](Cc1c[nH]cn1)NC(=O)[C@@H](NC(=O)[C@H](CC(C)C)NC(=O)[C@H](Cc1ccccc1)NC(=O)[C@H](CC(N)=O)NC(=O)[C@H](C)NC(=O)[C@H](CC(C)C)NC(=O)[C@H](CCCNC(=N)N)NC(=O)[C@H](CCC(N)=O)NC(=O)[C@@H](NC(=O)[C@H](C)NC(=O)[C@@H]1CSSC[C@H](NC(=O)[C@H](CCCCN)NC(=O)[C@@H](N)CCCCNC(=O)CC[C@H](NC(=O)CC[C@H](NC(=O)CCCCCCCCCCCCCCCCC(=O)O)C(=O)O)C(=O)O)C(=O)N[C@@H](CC(N)=O)C(=O)N[C@@H]([C@@H](C)O)C(=O)N[C@@H](C)C(=O)N[C@@H]([C@@H](C)O)C(=O)N1)[C@@H](C)O)C(C)C)C(=O)N[C@@H](CC(C)C)C(=O)N1CCC[C@H]1C(=O)N1CCC[C@H]1C(=O)N[C@H](C(=O)N[C@@H](CCCNC(=N)N)C(=O)N[C@H](C(=O)NCC(=O)N[C@@H](CO)C(=O)N[C@@H](CC(N)=O)C(=O)N[C@H](C(=O)N[C@@H](Cc1ccc(O)cc1)C(N)=O)[C@@H](C)O)C(C)C)[C@@H](C)O [Peptide 70, K(γE-γE-C18diacid)K[CNTATC]ATQRLANFLVHSS(Aib)NFGPILPPTRVGSNTY-amide] (H-K([γGlu-γGlu-C18 diacid])KCNTATCATQRLANFLVHSS[Aib]NFGPILPPTRVGSNTY-NH2; disulfide 3-8; N-terminus assumed)
>144 h | CC[C@H](C)[C@H](NC(=O)[C@@H]1CCCN1C(=O)CNC(=O)[C@](C)(Cc1ccccc1)NC(=O)[C@H](CC(N)=O)NC(=O)[C@H](CC(N)=O)NC(=O)[C@H](CO)NC(=O)[C@H](CO)NC(=O)[C@H](Cc1c[nH]cn1)NC(=O)[C@@H](NC(=O)[C@H](CC(C)C)NC(=O)[C@H](Cc1ccccc1)NC(=O)[C@H](CC(N)=O)NC(=O)[C@H](C)NC(=O)[C@H](CC(C)C)NC(=O)[C@H](CCCNC(=N)N)NC(=O)[C@H](CCC(N)=O)NC(=O)[C@@H](NC(=O)[C@H](C)NC(=O)[C@@H]1CSSC[C@H](NC(=O)[C@@H](N)CCCCNC(=O)CC[C@H](NC(=O)CCCCCCCCCCCCCCCCC(=O)O)C(=O)O)C(=O)N[C@@H](CC(N)=O)C(=O)N[C@@H]([C@@H](C)O)C(=O)N[C@@H](C)C(=O)N[C@@H]([C@@H](C)O)C(=O)N1)[C@@H](C)O)C(C)C)C(=O)N[C@@H](CC(C)C)C(=O)N1CCC[C@H]1C(=O)N1CCC[C@H]1C(=O)N[C@H](C(=O)N[C@@H](CCCNC(=N)N)C(=O)N[C@H](C(=O)NCC(=O)N[C@@H](CO)C(=O)N[C@@H](CC(N)=O)C(=O)N[C@H](C(=O)N[C@@H](Cc1ccc(O)cc1)C(N)=O)[C@@H](C)O)C(C)C)[C@@H](C)O [Peptide 25, K(γE-C18diacid)[CNTATC]ATQRLANFLVHSSNN(αMePhe)GPILPPTRVGSNTY-amide] (H-K([γGlu-C18 diacid])CNTATCATQRLANFLVHSSNN[αMeF]GPILPPTRVGSNTY-NH2; disulfide 2-7; N-terminus assumed)
>144 h | CC[C@H](C)[C@H](NC(=O)[C@@H]1CCCN1C(=O)CNC(=O)[C@](C)(Cc1ccccc1)NC(=O)[C@H](CC(N)=O)NC(=O)[C@H](CC(N)=O)NC(=O)[C@H](CO)NC(=O)[C@H](CO)NC(=O)[C@H](Cc1c[nH]cn1)NC(=O)[C@H](CCCNC(=N)N)NC(=O)[C@H](CC(C)C)NC(=O)[C@H](Cc1ccccc1)NC(=O)[C@H](CC(N)=O)NC(=O)[C@H](C)NC(=O)[C@H](CC(C)C)NC(=O)[C@H](CCCNC(=N)N)NC(=O)[C@H](CCC(N)=O)NC(=O)[C@@H](NC(=O)[C@H](C)NC(=O)[C@@H]1CSSC[C@H](NC(=O)[C@@H](N)CCCCNC(=O)CC[C@H](NC(=O)CCCCCCCCCCCCCCCCC(=O)O)C(=O)O)C(=O)N[C@@H](CC(N)=O)C(=O)N[C@@H]([C@@H](C)O)C(=O)N[C@@H](C)C(=O)N[C@@H]([C@@H](C)O)C(=O)N1)[C@@H](C)O)C(=O)N[C@@H](CC(C)C)C(=O)N1CCC[C@H]1C(=O)N1CCC[C@H]1C(=O)N[C@H](C(=O)N[C@@H](CC(N)=O)C(=O)N[C@H](C(=O)NCC(=O)N[C@@H](CO)C(=O)N[C@@H](CC(N)=O)C(=O)N[C@H](C(=O)N[C@@H](Cc1ccc(O)cc1)C(N)=O)[C@@H](C)O)C(C)C)[C@@H](C)O [Peptide 19, K(γE-C18diacid)[CNTATC]ATQRLANFLRHSSNN(αMePhe)GPILPPTNVGSNTY-amide] (H-K([γGlu-C18 diacid])CNTATCATQRLANFLRHSSNN[αMeF]GPILPPTNVGSNTY-NH2; disulfide 2-7; N-terminus assumed)
7 h | CC[C@H](C)[C@H](NC(=O)[C@H](C)NC(=O)[C@@H]1CCCN1C(=O)[C@H](Cc1ccccc1)NC(=O)[C@H](CC(N)=O)NC(=O)C(C)(C)NC(=O)[C@H](CO)NC(=O)[C@H](CO)NC(=O)[C@H](Cc1c[nH]cn1)NC(=O)[C@@H](NC(=O)[C@H](CC(C)C)NC(=O)[C@H](Cc1ccccc1)NC(=O)[C@H](CC(N)=O)NC(=O)[C@H](C)NC(=O)[C@H](CC(C)C)NC(=O)[C@H](CCCNC(=N)N)NC(=O)[C@H](CCC(N)=O)NC(=O)[C@@H](NC(=O)[C@H](C)NC(=O)[C@@H]1CSSC[C@H](NC(=O)[C@@H](N)CCCCNC(=O)CC[C@H](NC(=O)CC[C@H](NC(=O)CCCCCCCCCCCCCCCCC(=O)O)C(=O)O)C(=O)O)C(=O)N[C@@H](CC(N)=O)C(=O)N[C@@H]([C@@H](C)O)C(=O)N[C@@H](C)C(=O)N[C@@H]([C@@H](C)O)C(=O)N1)[C@@H](C)O)C(C)C)C(=O)N[C@@H](CC(C)C)C(=O)N[C@@H](CO)C(=O)N1CCC[C@H]1C(=O)N[C@H](C(=O)N[C@@H](CC(N)=O)C(=O)N[C@H](C(=O)NCC(=O)N[C@@H](CO)C(=O)N[C@@H](CC(N)=O)C(=O)N[C@H](C(=O)N[C@@H](Cc1ccc(O)cc1)C(N)=O)[C@@H](C)O)C(C)C)[C@@H](C)O [Peptide 9, K(γE-γE-C18diacid)[CNTATC]ATQRLANFLVHSS(Aib)NFPAILSPTNVGSNTY-amide] (H-K([γGlu-γGlu-C18 diacid])CNTATCATQRLANFLVHSS[Aib]NFPAILSPTNVGSNTY-NH2; disulfide 2-7; N-terminus assumed)
<5 h | CC[C@H](C)[C@H](NC(=O)[C@@H]1CCCN1C(=O)CNC(=O)[C@H](Cc1ccccc1)NC(=O)[C@H](CC(N)=O)NC(=O)[C@H](CC(N)=O)NC(=O)[C@H](CO)NC(=O)[C@H](CO)NC(=O)[C@H](Cc1c[nH]cn1)NC(=O)[C@@H](NC(=O)[C@H](CC(C)C)NC(=O)[C@H](Cc1ccccc1)NC(=O)[C@H](CC(N)=O)NC(=O)[C@H](C)NC(=O)[C@H](CC(C)C)NC(=O)[C@H](CCCNC(=N)N)NC(=O)[C@H](CCC(N)=O)NC(=O)[C@@H](NC(=O)[C@H](C)NC(=O)[C@@H]1CSSC[C@H](NC(=O)[C@H](CCCCN)NC(=O)CC[C@H](NC(=O)CCCCCCCCCCCCCCCCC(=O)O)C(=O)O)C(=O)N[C@@H](CC(N)=O)C(=O)N[C@@H]([C@@H](C)O)C(=O)N[C@@H](C)C(=O)N[C@@H]([C@@H](C)O)C(=O)N1)[C@@H](C)O)C(C)C)C(=O)N[C@@H](CC(C)C)C(=O)N1CCC[C@H]1C(=O)N1CCC[C@H]1C(=O)N[C@H](C(=O)N[C@@H](CC(N)=O)C(=O)N[C@H](C(=O)NCC(=O)N[C@@H](CO)C(=O)N[C@@H](CC(N)=O)C(=O)N[C@H](C(=O)N[C@@H](Cc1ccc(O)cc1)C(N)=O)[C@@H](C)O)C(C)C)[C@@H](C)O [Peptide 3] ({C18 diacid-γGlu}-KCNTATCATQRLANFLVHSSNNFGPILPPTNVGSNTY-NH2; disulfide 2-7)

same assay, conditions: as seen in Table 7

fibril-forming tendency on conjugating pramlintide to a lipid | SMILES
increases the fibril-forming tendency | CC[C@H](C)[C@H](NC(=O)[C@@H]1CCCN1C(=O)CNC(=O)[C@H](Cc1ccccc1)NC(=O)[C@H](CC(N)=O)NC(=O)[C@H](CC(N)=O)NC(=O)[C@H](CO)NC(=O)[C@H](CO)NC(=O)[C@H](Cc1c[nH]cn1)NC(=O)[C@@H](NC(=O)[C@H](CC(C)C)NC(=O)[C@H](Cc1ccccc1)NC(=O)[C@H](CC(N)=O)NC(=O)[C@H](C)NC(=O)[C@H](CC(C)C)NC(=O)[C@H](CCCNC(=N)N)NC(=O)[C@H](CCC(N)=O)NC(=O)[C@@H](NC(=O)[C@H](C)NC(=O)[C@@H]1CSSC[C@H](NC(=O)[C@H](CCCCN)NC(=O)CC[C@H](NC(=O)CCCCCCCCCCCCCCCCC(=O)O)C(=O)O)C(=O)N[C@@H](CC(N)=O)C(=O)N[C@@H]([C@@H](C)O)C(=O)N[C@@H](C)C(=O)N[C@@H]([C@@H](C)O)C(=O)N1)[C@@H](C)O)C(C)C)C(=O)N[C@@H](CC(C)C)C(=O)N1CCC[C@H]1C(=O)N1CCC[C@H]1C(=O)N[C@H](C(=O)N[C@@H](CC(N)=O)C(=O)N[C@H](C(=O)NCC(=O)N[C@@H](CO)C(=O)N[C@@H](CC(N)=O)C(=O)N[C@H](C(=O)N[C@@H](Cc1ccc(O)cc1)C(N)=O)[C@@H](C)O)C(C)C)[C@@H](C)O [Peptide 3] ({C18 diacid-γGlu}-KCNTATCATQRLANFLVHSSNNFGPILPPTNVGSNTY-NH2; disulfide 2-7)
